Where two headings read alike, the source gives them in different places.
Columns and labels:
Assay type in all cases: in vivo
[1] = system: bronchospasms elicited by intravenous injections of 5-hydroxytryptamine, histamine or acetylcholine; assay: Bronchodilator activity in guinea pigs by the Konzett procedure; details: Cavia porcellus, guinea pig, three logarithmic cumulative intravenous doses
Experimental: The compounds of this invention are useful as bronchodilators for the treatment of asthma and chronic bronchitis. Bronchodilator activity is determined in guinea pigs against bronchospasms elicited by intravenous injections of 5-hydroxytryptamine, histamine or acetylcholine by the Konzett procedure. [See J. Lulling, P. Lievens, F. El Sayed and J. Pringnot, Arzneimittel-Forschung, 18, 955 (1968).].
In Table which follows bronchodilator activity for representative compounds of this invention against one or more of three spasmogenic agents is expressed as an ED50 determined from the results obtained with three logarithmic cummulative intravenous doses. In this assay, these compounds of this invention provide an effect of longer duration than does natural 1-PGE1 or 1-PGE2.

[2] = system: histamine-stimulated gastric acid secretion; assay: Gastric acid secretion in the dog, gastric fistula; details: 5 μg/Kg by stomach tube, i.v. histamine 40 μg/kg/hr
Experimental: (§1) Experiments are carried out on six fasted female mongrel dogs, 3-7 years of age. Each had been provided with either a gastric fistula (4 dogs) or a Heidenhain pouch (2 dogs) using standard surgical techniques. Briefly, spool shaped cannulae of stainless steel (gastric fistual preparation) or titanium (Heidenhain pouch preparation) were inserted into narrow slits in the most dependent portion of the vertical stomach and retained in place by a purse-string suture. In the Heidenhain pouch preparation the slit made in a denervated sleeve of stomach which was isolated along the greater curvature. The cannulae were exteriorized through a trocar wound in the abdomen just left of midline and, as the purse string was tightened about the cannulae, the edges of the wound were inverted.
The drug is administered at zero time through the smaller lumen of a double lumen Salen Sump Tube which has been placed transorally into the animal's stomach. The length is adjusted to reach from the mouth just to the cannula site. Five ml of saline are then flushed through the smaller lumen, followed by 5 ml of air. Immediately following 20-25 ml of saline are placed into the stomach through the larger lumen of the double lumen tube and the tube withdrawn.
Thirty minutes after the drug is administered the gastric annula is opened, irrigated rapidly with 25-30 ml of saline 4 separate times and allowed to drain for 15 minutes.
At the end of the drainage period, the intravenous histamine infusion is started ([…]) and the first 15 minutes collection period of gastric secretions via the cannula is begun. The collection is changed every 15 minutes. The volume of each 15 minute sample is measured and an aliquot titrated to pH 7 with 0.1 N NaOH using a Radiometer automatic titrator.
^1 Secretion is stimulated with intravenous histamine, 40 μg/kg/hr
g/Kg) 45 minutes after administration of compound (5μg/Kg)? or vehicle
(control) by stomach tube. Secretions are collected from fistula annula.

[3] = system: histamine-stimulated gastric acid secretion; assay: Gastric acid secretion in the dog, Heidenhain pouch; details: 5 μg/kg by stomach tube, i.v. histamine 40 μg/kg/hr
Experimental: as §1
The intravenous histamine infusion ([…]) is started. At the same time, the first gastric secretion collection is begun. these secretions are collected by gravity drainage through the Heidenhain pouch cannula. Separate gastric samples are collected every fifteen minutes. When the volumes of two successive samples are within 10% of each other (usually occuring by the end of the fourth period--after one hour of histamine infusion) the drug is given to the animal (time 0). The latter of the two samples is considered to be the control for that particular experiment. The drug is administered through the smaller lumen of a double lumen Salem Sump Tube which has been cut to a length equal to the mouth to stomach distance of the dog. Following administration of the drug, the narrow lumen is flushed first with […], followed by 5 ml of air. Twenty-five to 30 ml of saline is then introduced into the stomach through the larger lumen and the tube withdrawn. (Note: Samples of gastric juice are taken from the pouch, drug is administered into the main stomach). Aliquots of each 15 minute gastric sample are titrated to pH 7 with 0.1 N NaOH using a Radiometer automatic titrator.
^2 Secretion is stimulated with intravenous histamine, 40 μg/kg/hr
and samples are collected through the pouch cannula at 15 minute
intervals. When the volume of two successive samples are within 10% of
each other, compound is administered (5 μg/kg) by stomach tube. The en
of the latter two periods is considered as 0 time (control).

[4] = bronchospasm by 5-hydroxytryptamine, read-out: ED50 5HT
[5] = bronchospasm by acetylcholine, read-out: ED50 ACH
[6] = bronchospasm by histamine, read-out: ED50 HIST.

| Structure (SMILES) | ED50 [1, 4] | ED50 [1, 5] | ED50 [1, 6] | % INHIBITION ACID SECRETION, 45-60 minutes after compound [2] | % INHIBITION ACID SECRETION, 60-75 minutes after compound [2] | % INHIBITION ACID SECRETION, 75-90 minutes after compound [2] | % INHIBITION ACID SECRETION, 90-105 minutes after compound [2] | % INHIBITION ACID SECRETION, 105-120 minutes after compound [2] | % INHIBITION ACID SECRETION, 0-15 minutes after compound ([3]; 0-15 min) | % INHIBITION ACID SECRETION, 15-30 minutes after compound ([3]; 15-30 min) | % INHIBITION ACID SECRETION, 30-45 minutes after compound ([3]; 30-45 min) | % INHIBITION ACID SECRETION, 45-60 minutes after compound ([3]; 45-60 min) | % INHIBITION ACID SECRETION, 60-75 minutes after compound ([3]; 60-75 min) |
| --- | --- | --- | --- | --- | --- | --- | --- | --- | --- | --- | --- | --- | --- |
| CCCCC(C)(O)C/C=C/[C@H]1[C@H](O)CC(=O)[C@@H]1C/C=C\CCCC(=O)C(=O)OCC (relative stereo) [dl-1,9-Dioxo-1-carbethoxy-11α,16-dihydroxy-16-methyl-5-cis-13-trans-prostadiene] | 9.51 µg/kg | 5.92 µg/kg | 9.31 µg/kg | 96% | 62% | 59% | 56% | 47% | – | – | – | – | – |
| CCCCCC(C)(O)/C=C/[C@H]1[C@H](O)CC(=O)[C@@H]1CCCCCCC(=O)C(=O)OCC (relative stereo) [dl-1,9-dioxo-1-carbethoxy-11α,15-dihydroxy-15-methyl-13-trans-prostene] | 4.22 µg/kg | – | 6.05 µg/kg | – | – | – | – | – | – | – | – | – | – |
| C=CC(O)(C/C=C/[C@H]1[C@H](O)CC(=O)[C@@H]1C/C=C\CCCC(=O)C(=O)OCC)CCCC (relative stereo) [dl-1,9-Dioxo-1-carbethoxy-11α,16-dihydroxy-16-vinyl-5-cis-13-trans-prostadiene] | 0.665 µg/kg | 3.41 µg/kg | 2.26 µg/kg | – | – | – | – | – | – | – | – | – | – |
| CCCCC(C)(O)C/C=C/[C@H]1[C@H](O)CC(=O)[C@@H]1CCCCCCC(=O)C(=O)OCC (relative stereo) [dl-1,9-dioxo-1-carbethoxy-11,16-dihydroxy-16-methyl-13-trans-prostene] | – | – | – | 97% | 91% | 76% | 72% | 56% | 20% | 28% | 34% | 21% | 12% |
